One block for each compound: values may come before it.
Assay: Effect of temperature (and pH) on the stability of the solution (purity)
Type: physicochemical

Purity (%) at day 21 (60° C.) (pH 1.02, 7% solution in water): 0%
Purity(%) at day 21 (5° C.) (pH 1.02, 7% solution in water): 93.8 ± 0.2%
Purity(%) at day 21 (25° C.) (pH 1.02, 7% solution in water): 72.2 ± 0.2%
Purity(%) at day 21 (40° C.) (pH 1.02, 7% solution in water): 18.1 ± 0.3%
Purity (%) at day 21 (60° C.) (pH 2.09, 7% solution in water): 0%
Purity(%) at day 21 (25° C.) (pH 2.09, 7% solution in water): 86.3 ± 0.2%
Purity(%) at day 21 (40° C.) (pH 2.09, 7% solution in water): 30.2 ± 0.4%
Purity (%) at day 21 (60° C.) (pH 3.00, 7% solution in water): 7.9 ± 0.2%
Purity(%) at day 21 (25° C.) (pH 3.00, 7% solution in water): 96.3 ± 0.2%
Purity(%) at day 21 (40° C.) (pH 3.00, 7% solution in water): 56.7 ± 0.2%
Purity (%) at day 21 (60° C.) (pH 3.68, 7% solution in water): 15.3 ± 0.4%
Purity(%) at day 21 (40° C.) (pH 3.68, 7% solution in water): 63.7 ± 0.2%
Purity (%) at day 21 (60° C.) (pH 4.07, 7% solution in water): 21.5 ± 0.3%
Purity(%) at day 21 (40° C.) (pH 4.07, 7% solution in water): 72.5 ± 0.3%
Purity (%) at day 21 (60° C.) (pH 4.35, 7% solution in water): 18.7 ± 0.2%
Purity(%) at day 21 (40° C.) (pH 4.35, 7% solution in water): 72.3 ± 0.2%
Purity (%) at day 21 (60° C.) (pH 4.67, 7% solution in water): 10.6 ± 0.2%
Purity(%) at day 21 (40° C.) (pH 4.67, 7% solution in water): 58.5 ± 0.2%
Purity (%) at day 21 (60° C.) (pH 4.95, 7% solution in water): 3.1 ± 0.3%
Purity(%) at day 21 (25° C.) (pH 4.95, 7% solution in water): 95.5 ± 0.3%
Purity(%) at day 21 (40° C.) (pH 4.95, 7% solution in water): 50.6 ± 0.2%
Purity (%) at day 21 (60° C.) (pH 5.98, 7% solution in water): 0%
Purity(%) at day 21 (5° C.) (pH 5.98, 7% solution in water): 96.1 ± 0.2%
Purity(%) at day 21 (25° C.) (pH 5.98, 7% solution in water): 90.7 ± 0.3%
Purity(%) at day 21 (40° C.) (pH 5.98, 7% solution in water): 30.3 ± 0.3%
Purity (%) at day 21 (60° C.) (pH 6.98, 7% solution in water): 0%
Purity(%) at day 21 (5° C.) (pH 6.98, 7% solution in water): 90.9 ± 0.2%
Purity(%) at day 21 (25° C.) (pH 6.98, 7% solution in water): 70.8 ± 0.2%
Purity(%) at day 21 (40° C.) (pH 6.98, 7% solution in water): 19.9 ± 0.3%
Purity (%) at day 21 (60° C.) (pH 8.01, 7% solution in water): 0%
Purity(%) at day 21 (5° C.) (pH 8.01, 7% solution in water): 81.9 ± 0.2%
Purity(%) at day 21 (25° C.) (pH 8.01, 7% solution in water): 58.8 ± 0.2%
Purity(%) at day 21 (40° C.) (pH 8.01, 7% solution in water): 0%
SMILES: CCN(CC)CCOC(=O)[C@H](C)c1ccc2cc(OC)ccc2c1.Cl (racemic)

SMILES: CCN(CC)CCOC(=O)COC(=O)Cc1c(C)n(C(=O)c2ccc(Cl)cc2)c2ccc(OC)cc12.Cl [2-(diethylamino)ethyl 1-(4-chlorobenzoyl-5-methoxy-2-methyl-1H-indole-3-acetoxyacetate.HCl]
Stability of the solution at a temperature higher than 40° C. and a pH lower than 3 or greater than 6 (7% solution in water): not stable

Source: patent US20230157952A1, “METHOD FOR IMPROVING THE STABILITY OF A PHARMACEUTICAL COMPOSITION COMPRISING A HIGH PENETRATION DRUG, AND THE PHARMACEUTICAL COMPOSITION OBTAINED THEREFROM” (Techfields Inc., priority 2020, published 2023)
